Literature values in US20260216238A1, “TETRATHIOMOLYBDIC ACID FOR USE IN TREATING COPPER METABOLISM-ASSOCIATED DISEASES OR DISORDERS (WILSON DISEASE)” (Alexion Pharmaceuticals, Inc., priority 2023, published 2026).

System: patients with Wilson disease (WD)
Details: cited from earlier work; for patients with worsening of neurological symptoms on initiation of treatment: in vivo

Compound | patients with worsening of neurological symptoms on initiation of treatment | patients with severe side effects requiring drug withdrawal (Schilsky et al., 2022) | patients with gastric irritation or gastritis (Schilsky et al., 2022) | hepatic treatment failure (long-term follow-up (Weiss et al., 2011))
NCCNCCNCCN [trientine, N′-[2-(2-aminoethylamino)ethyl]ethane-1,2-diamine] | approximately 25% |  |  | 
CC(C)(S)[C@@H](N)C(=O)O [penicillamine, (2S)-2-amino-3-methyl-3-sulfanylbutanoic acid] | approximately 25% | approximately 30% |  | 
[Zn] [zinc] |  |  | ~ ⅓ | 14/88
